From the supplement of paper PMC10307832

Assays:
Assay in all cases: relative viability (nuclei count vs DMSO), 5 days (fraction); higher = more cells survive
[1] = test system: 201T
Outline: (§1)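 Lung cancer cell lines were pin-tool dosed in 1536-well plates on the day after seeding, with either a lone drug or a fixed anchor-drug dose plus five library-drug doses (not always all listed) in √10 steps. Nuclei were counted on 4× images after 5 days. Relative viability is the ratio of treated-well to vehicle-well nuclei counts, with each value a median of duplicate plates.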

[2] = test system: BEN
Outline: as §1

[3] = test system: COR-L 105
Outline: as §1

[4] = test system: EKVX
Outline: as §1

[5] = test system: EPLC-272H
Outline: as §1

[6] = test system: H3255
Outline: as §1

[7] = test system: HCC-44
Outline: as §1

[8] = test system: HCC-827
Outline: as §1

[9] = test system: LCLC-97TM1
Outline: as §1

[10] = test system: LOU-NH91
Outline: as §1

[11] = test system: LU99A
Outline: as §1

[12] = test system: NCI-H1437
Outline: as §1

[13] = test system: NCI-H1666
Outline: as §1

[14] = test system: NCI-H1975
Outline: as §1

[15] = test system: NCI-H2085
Outline: as §1

[16] = test system: NCI-H2087
Outline: as §1

[17] = test system: NCI-H2170
Outline: as §1

[18] = test system: NCI-H647
Outline: as §1

[19] = test system: PC-3 [JPC-3]
Outline: as §1

[20] = test system: SW 1573
Outline: as §1

O=c1cc(N2CCOCC2)oc2c(-c3cccc4c3sc3ccccc34)cccc12 + CC1(C)CCC(c2ccc(Cl)cc2)=C(CN2CCN(c3ccc(C(=O)NS(=O)(=O)c4ccc(N[C@H](CCN5CCOCC5)CSc5ccccc5)c(S(=O)(=O)C(F)(F)F)c4)cc3)CC2)C1 [Navitoclax] (partner 0.5 µM)
relative viability ([1]; first compound 0.01 µM): 1.2
relative viability ([1]; first compound 0.03162 µM): 1.17
relative viability ([1]; first compound 0.1 µM): 1.19
relative viability ([1]; first compound 0.3162 µM): 1.19
relative viability ([1]; first compound 1 µM): 1.18
relative viability ([2]; first compound 0.01 µM): 0.155
relative viability ([2]; first compound 0.03162 µM): 0.0681
relative viability ([2]; first compound 0.1 µM): 0.0673
relative viability ([2]; first compound 0.3162 µM): 0.0807
relative viability ([2]; first compound 1 µM): 0.0563
relative viability ([3]; first compound 0.01 µM): 0.91
relative viability ([3]; first compound 0.03162 µM): 0.817
relative viability ([3]; first compound 0.1 µM): 0.79
relative viability ([3]; first compound 0.3162 µM): 0.73
relative viability ([3]; first compound 1 µM): 0.676
relative viability ([4]; first compound 0.01 µM): 1.02
relative viability ([4]; first compound 0.03162 µM): 0.903
relative viability ([4]; first compound 0.1 µM): 0.991
relative viability ([4]; first compound 0.3162 µM): 0.956
relative viability ([4]; first compound 1 µM): 0.871
relative viability ([5]; first compound 0.01 µM): 1.11
relative viability ([5]; first compound 0.03162 µM): 1.05
relative viability ([5]; first compound 0.3162 µM): 1.04
relative viability ([5]; first compound 1 µM): 1.08
relative viability ([6]; first compound 0.01 µM): 0.557
relative viability ([6]; first compound 0.03162 µM): 0.5
relative viability ([6]; first compound 0.1 µM): 0.555
relative viability ([6]; first compound 0.3162 µM): 0.54
relative viability ([6]; first compound 1 µM): 0.527
relative viability ([7]; first compound 0.01 µM): 0.854
relative viability ([7]; first compound 0.03162 µM): 0.94
relative viability ([7]; first compound 0.1 µM): 0.963
relative viability ([7]; first compound 0.3162 µM): 0.887
relative viability ([7]; first compound 1 µM): 0.931
relative viability ([8]; first compound 0.01 µM): 1.02
relative viability ([8]; first compound 0.03162 µM): 0.996
relative viability ([8]; first compound 0.1 µM): 1.01
relative viability ([8]; first compound 0.3162 µM): 1.07
relative viability ([8]; first compound 1 µM): 1.02
relative viability ([9]; first compound 0.01 µM): 0.391
relative viability ([9]; first compound 0.03162 µM): 0.568
relative viability ([9]; first compound 0.3162 µM): 0.362
relative viability ([9]; first compound 1 µM): 0.346
relative viability ([10]; first compound 0.01 µM): 0.637
relative viability ([10]; first compound 0.03162 µM): 0.631
relative viability ([10]; first compound 0.1 µM): 0.695
relative viability ([10]; first compound 0.3162 µM): 0.747
relative viability ([10]; first compound 1 µM): 0.689
relative viability ([11]; first compound 0.01 µM): 0.887
relative viability ([11]; first compound 0.03162 µM): 0.955
relative viability ([11]; first compound 0.1 µM): 0.884
relative viability ([11]; first compound 0.3162 µM): 0.773
relative viability ([11]; first compound 1 µM): 0.898
relative viability ([12]; first compound 0.01 µM): 1.05
relative viability ([12]; first compound 0.03162 µM): 1.13
relative viability ([12]; first compound 0.1 µM): 1.16
relative viability ([12]; first compound 0.3162 µM): 1.05
relative viability ([12]; first compound 1 µM): 1.05
relative viability ([13]; first compound 0.01 µM): 0.941
relative viability ([13]; first compound 0.03162 µM): 0.899
relative viability ([13]; first compound 0.1 µM): 0.819
relative viability ([13]; first compound 0.3162 µM): 0.798
relative viability ([13]; first compound 1 µM): 0.895
relative viability ([14]; first compound 0.01 µM): 1.02
relative viability ([14]; first compound 0.03162 µM): 1.13
relative viability ([14]; first compound 0.1 µM): 1.1
relative viability ([14]; first compound 0.3162 µM): 0.985
relative viability ([14]; first compound 1 µM): 0.994
relative viability ([15]; first compound 0.01 µM): 1.08
relative viability ([15]; first compound 0.03162 µM): 1.19
relative viability ([15]; first compound 0.1 µM): 1.17
relative viability ([15]; first compound 0.3162 µM): 1.08
relative viability ([15]; first compound 1 µM): 1.02
relative viability ([16]; first compound 0.01 µM): 0.929
relative viability ([16]; first compound 0.03162 µM): 0.904
relative viability ([16]; first compound 0.1 µM): 1.01
relative viability ([16]; first compound 0.3162 µM): 0.919
relative viability ([16]; first compound 1 µM): 0.857
relative viability ([17]; first compound 0.01 µM): 0.69
relative viability ([17]; first compound 0.03162 µM): 0.741
relative viability ([17]; first compound 0.1 µM): 0.599
relative viability ([17]; first compound 0.3162 µM): 0.62
relative viability ([17]; first compound 1 µM): 0.605
relative viability ([18]; first compound 0.01 µM): 0.985
relative viability ([18]; first compound 0.3162 µM): 1.06
relative viability ([18]; first compound 1 µM): 1.1
relative viability ([19]; first compound 0.01 µM): 0.824
relative viability ([19]; first compound 0.03162 µM): 0.784
relative viability ([19]; first compound 0.1 µM): 0.795
relative viability ([19]; first compound 0.3162 µM): 0.783
relative viability ([19]; first compound 1 µM): 0.777
relative viability ([20]; first compound 0.01 µM): 1.04
relative viability ([20]; first compound 0.03162 µM): 1
relative viability ([20]; first compound 0.1 µM): 1.15
relative viability ([20]; first compound 0.3162 µM): 1.06
relative viability ([20]; first compound 1 µM): 0.832
